# In publication PMC12704303, “Production of RPSL12-TetR fusion and development of two multiplex methods for simultaneous detection of tetracyclines and aminoglycosides in pork” (Food Chemistry: X, 2025):
# Test system: T1, RPSL12-TetR
# T1 construct: gene rpsL; single-chain fusion RPSL12 (372 bp) - linker (45 bp) - TetR (636 bp), total 1053 bp, in pET-32a(+), His-tag, expressed in E. coli host, Ni-NTA from soluble supernatant, about 41 kDa
# Experiment: microplate direct competition chemiluminescence, coated fusion protein, MC-HRP tracer
# Type: binding, Escherichia coli
# Details: competition with minocycline-HRP conjugate (TetR part); blank pork extract; 37 °C, 30 min
# Source text: microplate direct competition chemiluminescence, coated fusion protein, MC-HRP tracer on RPSL12-TetR
row,Structure (SMILES),IC50
1,CN(C)[C@@H]1C(=O)C(C(N)=O)=C(O)[C@@]2(O)C(=O)C3=C(O)c4c(O)ccc(Cl)c4[C@@](C)(O)[C@H]3C[C@@H]12 [CTC],0.0344 ng/mL
2,C[C@H]1c2cccc(O)c2C(=O)C2=C(O)[C@]3(O)C(=O)C(C(N)=O)=C(O)[C@@H](N(C)C)[C@@H]3[C@@H](O)[C@@H]21 [DC],0.0395 ng/mL
3,CN(C)[C@@H]1C(=O)C(C(N)=O)=C(O)[C@@]2(O)C(=O)C3=C(O)c4c(O)ccc(Cl)c4[C@@H](O)[C@H]3C[C@@H]12 [DMC],0.0287 ng/mL
4,CN(C)[C@@H]1C(O)=C(C(=O)NCNCCCC[C@H](N)C(=O)O)C(=O)[C@@]2(O)C(O)=C3C(=O)c4c(O)cccc4[C@@](C)(O)[C@H]3C[C@@H]12 [LMC],0.0427 ng/mL
5,CN(C)c1ccc(O)c2c1C[C@H]1C[C@H]3[C@H](N(C)C)C(O)=C(C(N)=O)C(=O)[C@@]3(O)C(O)=C1C2=O [MC],0.0357 ng/mL
6,C=C1c2cccc(O)c2C(O)=C2C(=O)[C@]3(O)C(O)=C(C(N)=O)C(=O)[C@@H](N(C)C)[C@@H]3[C@@H](O)[C@H]12 [MTC],0.0418 ng/mL
7,CN(C)[C@@H]1C(=O)C(C(N)=O)=C(O)[C@@]2(O)C(=O)C3=C(O)c4c(O)cccc4[C@@](C)(O)[C@H]3[C@H](O)[C@@H]12 [OTC],0.0402 ng/mL
8,CN(C)[C@@H]1C(=O)C(C(N)=O)=C(O)[C@@]2(O)C(=O)C3=C(O)c4c(O)cccc4C[C@H]3C[C@@H]12 [SC],0.0378 ng/mL
9,CN(C)[C@@H]1C(=O)C(C(N)=O)=C(O)[C@@]2(O)C(=O)C3=C(O)c4c(O)cccc4[C@@](C)(O)[C@H]3C[C@@H]12 [TC],0.038 ng/mL
10,CN(C)c1cc(NC(=O)CNC(C)(C)C)c(O)c2c1C[C@H]1C[C@H]3[C@H](N(C)C)C(=O)C(C(N)=O)=C(O)[C@@]3(O)C(=O)C1=C2O [TIC],0.0414 ng/mL

# Test system: T1, RPSL12-TetR
# Experiment: microplate direct competition chemiluminescence, coated fusion protein, STR-ALP tracer
# Type: binding, Escherichia coli
# Details: competition with streptomycin-ALP conjugate (RPSL12 part); blank pork extract; 37 °C, 30 min
# Source text: microplate direct competition chemiluminescence, coated fusion protein, STR-ALP tracer on RPSL12-TetR
row,Structure (SMILES),IC50
1,NCC[C@H](O)C(=O)N[C@@H]1C[C@H](N)[C@@H](O[C@H]2O[C@H](CN)[C@@H](O)[C@H](O)[C@H]2O)[C@H](O)[C@H]1O[C@H]1O[C@H](CO)[C@@H](O)[C@H](N)[C@H]1O [AMK],5.1 ng/mL
2,CCN[C@@H]1C[C@H](N)[C@@H](O[C@H]2O[C@H](CN)CC[C@H]2N)[C@H](O)[C@H]1O[C@H]1OC[C@](C)(O)[C@H](NC)[C@H]1O [ETM],17 ng/mL
3,CN[C@@H]1[C@@H](O)[C@@H](O[C@@H]2[C@@H](O)[C@H](O[C@H]3O[C@H](CN)[C@@H](O)[C@H](O)[C@H]3O)[C@@H](N)C[C@H]2NC(=O)[C@@H](O)CN)OC[C@]1(C)O [ISM],3.6 ng/mL
4,NC[C@H]1O[C@H](O[C@H]2[C@H](O)[C@@H](O[C@H]3O[C@H](CO)[C@@H](O)[C@H](N)[C@H]3O)[C@H](N)C[C@@H]2N)[C@H](O)[C@@H](O)[C@@H]1O [KAN],6.4 ng/mL
5,CNC[C@@H]1CC[C@@H](N)[C@@H](O[C@H]2[C@H](O)[C@@H](O[C@H]3OC[C@](C)(O)[C@H](NC)[C@H]3O)[C@H](N)C[C@@H]2N)O1 [MIM],3.8 ng/mL
6,CCN[C@@H]1C[C@H](N)[C@@H](O[C@H]2OC(CN)=CC[C@H]2N)[C@H](O)[C@H]1O[C@H]1OC[C@](C)(O)[C@H](NC)[C@H]1O [NTM],16 ng/mL
7,NC[C@@H]1O[C@H](O[C@H]2[C@@H](O)[C@H](O[C@@H]3[C@@H](O)[C@H](N)C[C@H](N)[C@H]3O[C@H]3O[C@H](CO)[C@@H](O)[C@H](O)[C@H]3N)O[C@@H]2CO)[C@H](N)[C@@H](O)[C@@H]1O [PMM],5.4 ng/mL
8,CN[C@@H]1[C@H](O)[C@H](NC)[C@H]2O[C@@]3(O)C(=O)C[C@@H](C)O[C@H]3O[C@@H]2[C@H]1O [SPM],9.8 ng/mL
9,CN[C@@H]1[C@H](O[C@H]2[C@H](O[C@H]3[C@H](O)[C@@H](O)[C@H](N=C(N)N)[C@@H](O)[C@@H]3N=C(N)N)O[C@@H](C)[C@]2(O)C=O)O[C@@H](CO)[C@H](O)[C@H]1O [STR],5.1 ng/mL
